What was measured:
GALAP (Galium) = assay: Postemergence herbicidal evaluation; assay type: in vivo, Galium aparine; conditions: postemergence
Method in brief: (§1)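 Visual 0–9 rating versus control (stand, vigor, malformation, size, chlorosis, overall appearance), taken four to five weeks post-spray. Two-week-old seedlings received roughly 0.0156–0.500 kg/ha active in acetone/water (50/50) with 0.5% TWEEN 20 via nozzle at 40 psi.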

[1] = tested on: IPOHE (Morningglory, Ivyleaf); assay: Postemergence herbicidal evaluation; assay type: in vivo, Ipomoea hederacea; conditions: postemergence
Method in brief: as §1

SETVI (Foxtail, Green) [2] = assay: Postemergence herbicidal evaluation; assay type: in vivo, Setaria viridis; conditions: postemergence
Method in brief: as §1

[3] = tested on: TRZAWR (Wheat, Winter, cv Riband); assay: Postemergence herbicidal evaluation; assay type: in vivo, Triticum aestivum; conditions: postemergence
Method in brief: as §1

ABUTH (Velvetleaf) = assay: Preemergence herbicidal evaluation; assay type: in vivo, Abutilon theophrasti; conditions: preemergence, rated 4-5 weeks after treatment, 0-9 scale
Method in brief: (§2)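 In this greenhouse assay, monocot and dicot seeds are planted in soil and treated prior to emergence with an aqueous acetone spray (about 0.0156-0.500 kg/ha). Plants are assessed visually against control on a 0-9 scale after 4-5 weeks.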

[4] = tested on: IPOHE (Morningglory, Ivyleaf); assay: Preemergence herbicidal evaluation; assay type: in vivo, Ipomoea hederacea; conditions: preemergence, rated 4-5 weeks after treatment, 0-9 scale
Method in brief: as §2

ECHCG (Barnyardgrass) = assay: Preemergence herbicidal evaluation; assay type: in vivo, Echinochloa crus-galli; conditions: preemergence, rated 4-5 weeks after treatment, 0-9 scale
Method in brief: as §2

SETVI (Foxtail, Green) [5] = assay: Preemergence herbicidal evaluation; assay type: in vivo, Setaria viridis; conditions: preemergence, rated 4-5 weeks after treatment, 0-9 scale
Method in brief: as §2

ZEAMX (Corn, Field) = assay: Preemergence herbicidal evaluation; assay type: in vivo, Zea mays; conditions: preemergence, rated 4-5 weeks after treatment, 0-9 scale
Method in brief: as §2

[6] = tested on: ECHORC (Watergrass (Calif.)); assay: Preemergence weed control under flooded paddy conditions; assay type: in vivo, Echinochloa oryzoides; conditions: rated 3-4 weeks after treatment
Method in brief: (§3)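 Seeds or propagules sown in silt loam kept flooded 1.5-3 cm; compounds in 50/50 acetone/water pipetted into flood water at about 0.0313 to 0.500 kg/ha. Greenhouse; visual 0-9 rating versus untreated control 3-4 weeks after treatment.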

CYPIR (Rice Flatsedge) = assay: as above; assay type: in vivo, Cyperus iria; conditions: rated 3-4 weeks after treatment
Method in brief: as §3

MOOVA (Monochoria) = assay: as above; assay type: in vivo, Monochoria vaginalis; conditions: rated 3-4 weeks after treatment
Method in brief: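 Greenhouse paddy assay. Acetone/water (50/50 v/v) solutions dosed into flood water, equivalent to about 0.0313 to 0.500 kg/ha active ingredient, over seeds planted 0.5 cm deep in silt loam. Score: 0-9 visual, based on stand, vigor, malformation, size and chlorosis, 3 to 4 weeks after treatment.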

[7] = tested on: ECHORC (Watergrass (Calif.)); assay: Postemergence weed control under flooded paddy conditions; assay type: in vivo, Echinochloa oryzoides; conditions: postemergence weeds, rated 3 to 4 weeks after treatment
Text: Results of herbicide evaluation are expressed on a rating scale (0-9). The scale is based upon a visual observation of plant stand, vigor, malformation, size, chlorosis and overall plant appearance as compared with a control.
Plastic containers containing weeds which are 3 to 5 cm tall and rice seedlings at the 1.5 to 2.5 leaf stage are flooded with water. The water is maintained at 1.5 to 3 cm above the soil surface for the duration of the experiment. Test compounds are applied as aqueous/ acetone mixtures 50/50 v/v directly into the flood water to provide the equivalent of about 0.0313 to 0.500 kg/ha of active ingredient. The treated containers are placed on greenhouse benches and cared for in accordance with conventional greenhouse procedures. Three to four weeks after treatment, the test is terminated and each container is examined and herbicidal effect rated according to the rating system provided in Example 37. The compounds evaluated are reported by compound number given in Example 37.

## CN1C(=O)C(CC(=O)NS(C)(=O)=O)SC1=Nc1cc(-n2c(=O)cc(C(F)(F)F)n(C)c2=O)c(F)cc1Cl (centres unmarked) [Compound 97, 2-{{2-Chloro-5-[3,6-dihydro-3-methyl-2,6-dioxo-4-(trifluoromethyl)-1(2H)-pyrimidinyl]-4-fluorophenyl}imino}-3-methyl-N-(methylsulfonyl)-4-oxo-5-thiazolidineacetamide]
GALAP (Galium); rate 0.0156 kg/ha
  GALAP herbicidal rating: 0.0
GALAP (Galium); rate 0.0313 kg/ha
  GALAP herbicidal rating: 0.0
GALAP (Galium); rate 0.0625 kg/ha
  GALAP herbicidal rating: 1.0
GALAP (Galium); rate 0.1250 kg/ha
  GALAP herbicidal rating: 1.0
[1]; rate 0.0156 kg/ha
  IPOHE herbicidal rating: 7.0
[1]; rate 0.0313 kg/ha
  IPOHE herbicidal rating: 9.0
[1]; rate 0.0625 kg/ha
  IPOHE herbicidal rating: 9.0
[1]; rate 0.1250 kg/ha
  IPOHE herbicidal rating: 9.0
SETVI (Foxtail, Green) [2]; rate 0.0156 kg/ha
  SETVI herbicidal rating: 1.0
SETVI (Foxtail, Green) [2]; rate 0.0313 kg/ha
  SETVI herbicidal rating: 6.0
SETVI (Foxtail, Green) [2]; rate 0.0625 kg/ha
  SETVI herbicidal rating: 9.0
SETVI (Foxtail, Green) [2]; rate 0.1250 kg/ha
  SETVI herbicidal rating: 9.0
[3]; rate 0.0156 kg/ha
  TRZAWR herbicidal rating: 1.0
[3]; rate 0.0313 kg/ha
  TRZAWR herbicidal rating: 1.5
[3]; rate 0.0625 kg/ha
  TRZAWR herbicidal rating: 2.5
[3]; rate 0.1250 kg/ha
  TRZAWR herbicidal rating: 4.0
ABUTH (Velvetleaf); 0.1250 kg/ha
  ABUTH rating: 4.0
ABUTH (Velvetleaf); 0.2500 kg/ha
  ABUTH rating: 9.0
ABUTH (Velvetleaf); 0.5000 kg/ha
  ABUTH rating: 9.0
[4]; 0.1250 kg/ha
  IPOHE rating: 1.0
[4]; 0.2500 kg/ha
  IPOHE rating: 9.0
[4]; 0.5000 kg/ha
  IPOHE rating: 9.0
ECHCG (Barnyardgrass); 0.1250 kg/ha
  ECHCG rating: 0.0
ECHCG (Barnyardgrass); 0.2500 kg/ha
  ECHCG rating: 0.0
ECHCG (Barnyardgrass); 0.5000 kg/ha
  ECHCG rating: 0.0
SETVI (Foxtail, Green) [5]; 0.1250 kg/ha
  SETVI rating: 0.0
SETVI (Foxtail, Green) [5]; 0.2500 kg/ha
  SETVI rating: 1.0
SETVI (Foxtail, Green) [5]; 0.5000 kg/ha
  SETVI rating: 7.0
ZEAMX (Corn, Field); 0.1250 kg/ha
  ZEAMX rating: 0.0
ZEAMX (Corn, Field); 0.2500 kg/ha
  ZEAMX rating: 0.0
ZEAMX (Corn, Field); 0.5000 kg/ha
  ZEAMX rating: 4.0
[6]; 0.0313 kg/ha
  ECHORC herbicidal effect rating: 0.0
[6]; 0.0625 kg/ha
  ECHORC herbicidal effect rating: 0.0
[6]; 0.1250 kg/ha
  ECHORC herbicidal effect rating: 2.0
[6]; 0.2500 kg/ha
  ECHORC herbicidal effect rating: 3.0
CYPIR (Rice Flatsedge); 0.0313 kg/ha
  CYPIR herbicidal effect rating: 0.0
CYPIR (Rice Flatsedge); 0.0625 kg/ha
  CYPIR herbicidal effect rating: 0.0
CYPIR (Rice Flatsedge); 0.1250 kg/ha
  CYPIR herbicidal effect rating: 3.0
CYPIR (Rice Flatsedge); 0.2500 kg/ha
  CYPIR herbicidal effect rating: 4.0
MOOVA (Monochoria); 0.0313 kg/ha
  MOOVA herbicidal effect rating: 9.0
MOOVA (Monochoria); 0.0625 kg/ha
  MOOVA herbicidal effect rating: 9.0
MOOVA (Monochoria); 0.1250 kg/ha
  MOOVA herbicidal effect rating: 9.0
MOOVA (Monochoria); 0.2500 kg/ha
  MOOVA herbicidal effect rating: 9.0
[7]; Rate 0.0313 kg/ha
  Herbicidal rating ECHORC: 0.0
[7]; Rate 0.0625 kg/ha
  Herbicidal rating ECHORC: 0.0
[7]; Rate 0.1250 kg/ha
  Herbicidal rating ECHORC: 2.0
[7]; Rate 0.2500 kg/ha
  Herbicidal rating ECHORC: 3.0

— patent US20020137929A1, “1 - (3-heterocyclylphenyl) isothiourea, -isourea, -guanidine and -amidine herbicidal agents” (Intellectual Property Department, BASF Aktiengesellschaft, priority 1998, published 2002)
